From the supplement of paper PMC11451515

System: P12-Ichikawa
Assay: cell viability relative to DMSO control; higher = less cytotoxic
Conditions: 48 h
Outline: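 Viability is expressed as a percentage of DMSO wells within each plate, and cell-free wells serve as background. Seeding densities in the 1536-well plates (5 μl) were 500 cells/well for NOMO1 or SEM leukemia cells and 1000 cells/well for P12-Ichikawa. Each line was adapted for at least four passages in each medium. Library compounds in DMSO were pin-dosed at 47 μM to 0.79 nM (11 points, threefold), and CellTiter-Glo One luminescence was read after 48 h at 37°C.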

[1] = HPLM + 10% dialyzed FBS, 0.000781 µM
[2] = HPLM + 10% dialyzed FBS, 0.00234 µM
[3] = HPLM + 10% dialyzed FBS, 0.00702 µM
[4] = HPLM + 10% dialyzed FBS, 0.0211 µM
[5] = HPLM + 10% dialyzed FBS, 0.0632 µM
[6] = HPLM + 10% dialyzed FBS, 0.19 µM
[7] = HPLM + 10% dialyzed FBS, 0.569 µM
[8] = HPLM + 10% dialyzed FBS, 1.71 µM
[9] = HPLM + 10% dialyzed FBS, 5.12 µM
[10] = HPLM + 10% dialyzed FBS, 15.4 µM
[11] = HPLM + 10% dialyzed FBS, 46.1 µM
[12] = RPMI 5 mM glucose + 10% FBS, 0.000781 µM
[13] = RPMI 5 mM glucose + 10% FBS, 0.00234 µM
[14] = RPMI 5 mM glucose + 10% FBS, 0.00702 µM
[15] = RPMI 5 mM glucose + 10% FBS, 0.0211 µM
[16] = RPMI 5 mM glucose + 10% FBS, 0.0632 µM
[17] = RPMI 5 mM glucose + 10% FBS, 0.19 µM
[18] = RPMI 5 mM glucose + 10% FBS, 0.569 µM
[19] = RPMI 5 mM glucose + 10% FBS, 1.71 µM
[20] = RPMI 5 mM glucose + 10% FBS, 5.12 µM
[21] = RPMI 5 mM glucose + 10% FBS, 15.4 µM
[22] = RPMI 5 mM glucose + 10% FBS, 46.1 µM
[23] = RPMI 5 mM glucose + 10% dialyzed FBS, 0.000781 µM
[24] = RPMI 5 mM glucose + 10% dialyzed FBS, 0.00234 µM
[25] = RPMI 5 mM glucose + 10% dialyzed FBS, 0.00702 µM
[26] = RPMI 5 mM glucose + 10% dialyzed FBS, 0.0211 µM
[27] = RPMI 5 mM glucose + 10% dialyzed FBS, 0.0632 µM
[28] = RPMI 5 mM glucose + 10% dialyzed FBS, 0.19 µM
[29] = RPMI 5 mM glucose + 10% dialyzed FBS, 0.569 µM
[30] = RPMI 5 mM glucose + 10% dialyzed FBS, 1.71 µM
[31] = RPMI 5 mM glucose + 10% dialyzed FBS, 5.12 µM
[32] = RPMI 5 mM glucose + 10% dialyzed FBS, 15.4 µM
[33] = RPMI 5 mM glucose + 10% dialyzed FBS, 46.1 µM

SMILES | cell viability [1] [%] | cell viability [2] [%] | cell viability [3] [%] | cell viability [4] [%] | cell viability [5] [%] | cell viability [6] [%] | cell viability [7] [%] | cell viability [8] [%] | cell viability [9] [%] | cell viability [10] [%] | cell viability [11] [%] | cell viability [12] [%] | cell viability [13] [%] | cell viability [14] [%] | cell viability [15] [%] | cell viability [16] [%] | cell viability [17] [%] | cell viability [18] [%] | cell viability [19] [%] | cell viability [20] [%] | cell viability [21] [%] | cell viability [22] [%] | cell viability [23] [%] | cell viability [24] [%] | cell viability [25] [%] | cell viability [26] [%] | cell viability [27] [%] | cell viability [28] [%] | cell viability [29] [%] | cell viability [30] [%] | cell viability [31] [%] | cell viability [32] [%] | cell viability [33] [%]
Cc1c[nH]c(/C=C2\C(=O)Nc3ccccc32)c1CCC(=O)O | 109 | 107 | 111 | 108 | 101 | 111 | 97.2 | 96.5 | 79.2 | 76.5 | 79.8 | 111 | 108 | 115 | 122 | 103 | 118 | 95.2 | 93.1 | 67.2 | 65.8 | 65.7 | 122 | 118 | 123 | 127 | 105 | 106 | 94.7 | 92.4 | 71.7 | 67.3 | 68.7
O=C/1\C=C(/OC(=C1)/C2=C3SC4=C(SC3=CC=C2)C=CC=C4)N5CCOCC5 | 81.4 | 100 | 98.5 | 10.6 | 100 | 103 | 102 | 98.1 | 95.2 | 94.4 | 95 | 84.7 | 92.7 | 96.9 | 11.2 | 103 | 100 | 106 | 104 | 93.1 | 102 | 102 | 83.4 | 94.4 | 97.2 | 23.7 | 95.7 | 84.4 | 99.2 | 99.4 | 96 | 95.7 | 90.8
CNC(=O)[C@H](Cc1ccccc1)NC(=O)[C@H](CC(C)C)[C@H](CSc1cccs1)C(=O)NO | 86.3 | 86.4 | 86.3 | 98.3 | 87.4 | 95.1 | 89.7 | 82.9 | 81.9 | 73.8 | 66.8 | 83.3 | 87.2 | 78.9 | 87 | 78 | 82.8 | 88.1 | 82.9 | 71 | 59.2 | 52.6 | 85.3 | 89.7 | 82.2 | 88.3 | 84.3 | 91 | 90.1 | 79.5 | 72.5 | 63.5 | 53
CC/1=C/N([C@@H]2C[C@@H](O)[C@H](CO)O2)C(=O)NC1=O | 93.7 | 89.4 | 96.2 | 85.5 | 78.7 | 83.4 | 91.7 | 86.1 | 73.7 | 74.2 | 8.14 | 75.2 | 86.7 | 83.5 | 85.8 | 65.9 | 80.7 | 90.2 | 76 | 62.3 | 69.5 | 6.95 | 76.3 | 84.6 | 79.8 | 75.9 | 61.6 | 73.3 | 81.8 | 81 | 61 | 64.3 | 12.2
O=C(NC1CCNCC1)c1n[nH]cc1NC(=O)c1c(Cl)cccc1Cl | 106 | 111 | 117 | 111 | 115 | 111 | 112 | 54.1 | 11.6 | 12.2 | 9.17 | 114 | 115 | 112 | 109 | 113 | 121 | 111 | 50.9 | 12.9 | 12.1 | 7.33 | 114 | 112 | 109 | 115 | 116 | 112 | 103 | 79.1 | 13.7 | 13.8 | 10.1
COc1ccc(Cc2nccc3cc(OC)c(OC)cc23)cc1OC | 122 | 120 | 117 | 120 | 125 | 122 | 119 | 116 | 115 | 107 | 96.5 | – | – | – | – | – | – | – | – | – | – | – | 121 | 114 | 126 | 126 | 123 | 126 | 121 | 119 | 105 | 111 | 78.5
C[C@H](NC(=O)C(=O)Nc1ccccc1C(C)(C)C)C(=O)N[C@@H](CC(=O)O)C(=O)COc1c(F)c(F)cc(F)c1F | 107 | 120 | 122 | 130 | 125 | 124 | 130 | 129 | 120 | 88.7 | 4.89 | 101 | 131 | 124 | 120 | 133 | 128 | 126 | 122 | 121 | 56.4 | 4.69 | 102 | 111 | 112 | 127 | 124 | 130 | 128 | 126 | 107 | 58.9 | 4.53
CO/N=C(/C(=O)N[C@@H]1C(=O)N2C(C(=O)O)=C(Cn3ccc(=N)n3CCO)CS[C@H]12)c1csc(N)n1 | 121 | 123 | 125 | 136 | 135 | 126 | 134 | 126 | 141 | 137 | 125 | – | – | – | – | – | – | – | – | – | – | – | – | – | – | – | – | – | – | – | – | – | –
NC(=O)c1ccc(-c2nc(-c3ccc4c(c3)OCCO4)c(-c3ccccn3)[nH]2)cc1 | 120 | 125 | 125 | 118 | 122 | 119 | 124 | 122 | 117 | 117 | 111 | 122 | 126 | 115 | 129 | 117 | 115 | 118 | 131 | 116 | 114 | 110 | 121 | 114 | 120 | 126 | 126 | 121 | 121 | 110 | 127 | 117 | 106
CCC(=O)O[C@@]1([C@@H](C)C[C@H]2[C@@H]3CCC/4=C/C(=O)/C=C\[C@]4(C)[C@@]3(F)[C@@H](O)C[C@]12C)C(=O)CCl | 118 | 121 | 101 | 86.8 | 79.2 | 73 | 76.9 | 76.9 | 70.2 | 68.6 | 55 | – | – | – | – | – | – | – | – | – | – | – | 134 | 107 | 83.8 | 79.9 | 59.9 | 61.3 | 56.2 | 57 | 54.1 | 51.3 | 38.5
CN(C)Cc1ccc(-c2nc3cccc4c3n2CCNC4=O)cc1 | 90.5 | 100 | 105 | 103 | 109 | 102 | 112 | 109 | 108 | 114 | 110 | 92.8 | 96.3 | 94.7 | 108 | 108 | 105 | 106 | 107 | 109 | 109 | 106 | 90.2 | 99.1 | 101 | 109 | 107 | 111 | 107 | 108 | 105 | 102 | 112
CC(=O)N1CCN(c2ccc(OCc3nn(C)c(C)c3-c3cccc4c(CCCOc5cc(C)c(Cl)c(C)c5)c(C(=O)O)n(Cc5cccnc5)c34)cc2)CC1 | 104 | 113 | 112 | 115 | 114 | 111 | 113 | 107 | 115 | 113 | 39.2 | 105 | 106 | 115 | 118 | 120 | 127 | 116 | 123 | 125 | 126 | 64.9 | 104 | 115 | 115 | 122 | 125 | 121 | 112 | 110 | 118 | 115 | 66.7
COc1cc(N2CCC(O)CC2)ccc1Nc1cc(Nc2ccccc2[S+](=O)([O-])C(C)C)c2cc[nH]c2n1 | 91.6 | 88.2 | 86 | 91.3 | 93 | 85.3 | 78.4 | 85.1 | 84.4 | 84.4 | 80.2 | 78.4 | 85.5 | 85.2 | 85.4 | 87.2 | 88 | 81.3 | 81.8 | 80.8 | 77.4 | 66.9 | 85 | 85.2 | 86.5 | 83.7 | 87.1 | 80.7 | 85 | 83.7 | 85.6 | 78.4 | 77.9
CC(C)(C)/[N+]([O-])=C/c1ccc([S+](=O)([O-])[O][Na])cc1[S+](=O)([O-])[O][Na] | 110 | 114 | 112 | 122 | 117 | 131 | 127 | 125 | 121 | 119 | 133 | 108 | 96.5 | 108 | 111 | 120 | 123 | 127 | 122 | 126 | 124 | 122 | 108 | 114 | 114 | 121 | 113 | 120 | 124 | 123 | 120 | 119 | 116
COc1cc2nccc(Oc3ccc(NC(=O)Nc4ccc(F)cc4F)c(F)c3)c2cc1OC | 95.4 | 93.2 | 94.7 | 100 | 98.1 | 89.3 | 91.8 | 94.1 | 85 | 76.5 | 12.9 | 91.1 | 94.8 | 88.4 | 94.8 | 93.5 | 92.2 | 83.8 | 86 | 73.5 | 80.3 | 13.7 | 88 | 98.3 | 87.5 | 89.9 | 82.1 | 87.4 | 84.5 | 85.3 | 75 | 81.9 | 22.2
COC(=O)N1CCN(Cc2cccc(NC(=O)Nc3ccc(C)nc3)c2F)CC1 | 94.8 | 102 | 103 | 98.7 | 102 | 94.9 | 97.7 | 94.1 | 91 | 88.7 | 84.8 | 96.6 | 98.7 | 95.8 | 104 | 98.7 | 95.2 | 82.2 | 81.4 | 85.9 | 87.6 | 74.4 | 92.8 | 96 | 87.1 | 93.7 | 89.7 | 84.5 | 84.5 | 78.2 | 81.2 | 81.3 | 69
